In PubChem BioAssay (NCI):
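Interpolation was linear, between the two tested concentrations surrounding the appropriate level; five concentrations were tested over 48 hours in 96-well plates. At the GI50, growth is halved. TGI: total growth inhibition.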

Columns and labels:
Assay in all cases: DTP human tumour cell line panel, 48 h
OVCAR-8 ovarian = test system: OVCAR-8 ovarian
A549 NSCLC = test system: A549 NSCLC
NCI/ADR-RES ovarian = test system: NCI/ADR-RES ovarian
SF-295 CNS = test system: SF-295 CNS
MALME-3M melanoma = test system: MALME-3M melanoma
MOLT-4 leukemia = test system: MOLT-4 leukemia
SW-620 colon = test system: SW-620 colon
SK-MEL-28 melanoma = test system: SK-MEL-28 melanoma
SK-MEL-2 melanoma = test system: SK-MEL-2 melanoma
COLO 205 colon = test system: COLO 205 colon
SNB-19 CNS = test system: SNB-19 CNS
RPMI-8226 leukemia = test system: RPMI-8226 leukemia
NCI-H522 lung = test system: NCI-H522 lung
M14 melanoma = test system: M14 melanoma
HCT-116 colon = test system: HCT-116 colon
SR leukemia = test system: SR leukemia
HOP-62 NSCLC = test system: HOP-62 NSCLC
SNB-75 CNS = test system: SNB-75 CNS
HCC-2998 colon = test system: HCC-2998 colon

Row | SMILES | TGI (OVCAR-8 ovarian) [µM] | TGI (A549 NSCLC) [µM] | TGI (NCI/ADR-RES ovarian) [µM] | TGI (SF-295 CNS) [µM] | TGI (MALME-3M melanoma) [µM] | TGI (MOLT-4 leukemia) [µM] | TGI (SW-620 colon) [µM] | TGI (SK-MEL-28 melanoma) [µM] | TGI (SK-MEL-2 melanoma) [µM] | TGI (COLO 205 colon) [µM] | TGI (SNB-19 CNS) [µM] | TGI (RPMI-8226 leukemia) [µM] | TGI (NCI-H522 lung) [µM] | TGI (M14 melanoma) [µM] | TGI (HCT-116 colon) [µM] | TGI (SR leukemia) [µM] | TGI (HOP-62 NSCLC) [µM] | TGI (SNB-75 CNS) [µM] | TGI (HCC-2998 colon) [µM] | GI50 (MALME-3M melanoma) [µM]
1 | O=P(O)(O)CCP(=O)(O)O | > 100 | > 100 | > 100 | > 100 | > 100 | > 100 | > 100 | > 100 | > 100 | > 100 | > 100 | > 100 | > 100 | > 100 | > 100 | > 100 | > 100 |  |  | 
2 | NC(CCCCCP(=O)(c1ccccc1)C1C=CC=CC1)C(=O)O (configuration not stated) | > 100 | > 100 | > 100 | > 100 |  | > 100 | > 100 | > 100 | > 100 | > 100 | > 100 | > 100 | > 100 | > 100 | > 100 | > 100 |  | > 100 |  | 
3 | CCN(CC)CCNc1ccc2nnn3c4ccc(OCCN(CC)CC)cc4c(=O)c1c23 | > 100 | > 100 | > 100 | > 100 |  | 39 | > 100 | > 100 | > 100 | > 100 | > 100 | > 100 | > 100 | > 100 | > 100 | 45.4 | 72.9 |  | > 100 | 
4 | COc1cc2c(cc1OC)C(CC1=C(c3ccccc3)CN3CCc4cc(OC)c(OC)cc4C3C1)NCC2 (configuration not stated) | 36.8 | 33.5 |  | 31.1 | 35.1 | 29.5 | 34.6 | 28.5 | 37.1 | 31.4 | 38.8 | 28.8 |  | 46.3 |  |  |  | 28 | 22.7 | 
5 | O=S(=O)(O)CCCc1cccc2ccccc12 | > 100 | > 100 | > 100 | > 100 | > 100 | > 100 | > 100 | > 100 | > 100 | > 100 | > 100 | > 100 | > 100 | > 100 | > 100 | > 100 | > 100 | > 100 | > 100 | 
6 | O=c1cc[nH]c(=O)[nH]1 | > 1000 | > 1000 | > 562 | > 1000 | > 1000 | > 919 | > 1000 | > 900 | > 1000 | 384 | 828 | > 1000 | 923 |  | > 821 |  | > 872 | > 953 | 528 | > 851
7 | CC(=O)OC1/C=C(\C)C(OC(C)=O)C/C=C(/C)CCC2C(/C=C/C1=O)C2(C)C (configuration not stated) | > 100 | > 100 |  | > 100 | > 100 | > 100 | > 100 | > 100 | > 100 | > 100 | > 100 |  | > 100 | > 100 | > 100 |  | > 100 | 93.1 | > 100 | 
8 | CC(=O)Nc1ccc(N=Nc2c(O)c(S(=O)(=O)O)cc3cc(S(=O)(=O)O)ccc23)cc1 | > 100 | > 100 | > 100 | > 100 | > 100 |  | > 100 | > 100 | > 100 | > 100 | > 100 | > 100 | > 100 | > 100 | > 100 |  | > 100 | > 100 |  | 
9 | C[n+]1c2ccc(Cl)cc2nc2cc(-c3ccccc3)ccc21 | 16 | 47.7 | > 100 | 11.5 | 40.4 | 5.19 | > 100 | 43.8 | 46.2 | 16 | 9.59 |  | 37.9 | 27.7 | > 100 | 9.14 | > 100 | 80.1 | 31.7 | 
10 | O=C(O)C(O)C(O)C(O)C(O)c1nc2ccccc2s1 (configuration not stated) | 37.4 | 39.3 | > 100 | 31.9 | 36.7 |  | 54.7 | 38 | 36.5 | > 100 | 49.8 | 68.8 | 27.1 | 45.7 | 30.1 |  | 33.5 | 34.7 |  | 
